Data reported in US10758549B2, “Compositions of obeticholic acid and methods of use” (Intercept Pharmaceuticals, Inc., priority 2015, dated 2020).

What was measured:
[1] = system: CYP2B6, CYP2C8, CYP2D6, MRP2, MRP3, MRP4, MATE1, and OATP2B1; experiment: In vitro studies: expression of metabolizing enzymes and transporters; format: in vitro ADME
[2] = target: T1, farnesoid X receptor (FXR) (Homo sapiens, UniProt Q96RI1); details: FXR agonism; cited from earlier work
T1 sequence (Q96RI1 1-486): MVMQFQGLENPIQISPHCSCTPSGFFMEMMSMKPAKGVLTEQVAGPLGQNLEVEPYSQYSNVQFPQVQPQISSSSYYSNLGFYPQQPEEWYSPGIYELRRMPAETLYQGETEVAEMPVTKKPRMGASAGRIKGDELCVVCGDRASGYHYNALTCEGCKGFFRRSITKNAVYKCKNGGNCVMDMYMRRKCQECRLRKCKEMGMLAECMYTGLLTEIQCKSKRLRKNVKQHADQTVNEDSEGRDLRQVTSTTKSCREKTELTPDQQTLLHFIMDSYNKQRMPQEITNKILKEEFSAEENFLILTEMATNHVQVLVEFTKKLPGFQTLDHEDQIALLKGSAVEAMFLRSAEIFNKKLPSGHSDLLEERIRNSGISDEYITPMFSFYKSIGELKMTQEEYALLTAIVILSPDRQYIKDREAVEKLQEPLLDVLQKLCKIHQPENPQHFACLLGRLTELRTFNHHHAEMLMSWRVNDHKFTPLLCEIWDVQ

[3] = system: subjects with primary biliary cirrhosis; experiment: Example 8: OCA in combination with UDCA in subjects with primary biliary cirrhosis; format: in vivo, human
Experimental: This example describes a study conducted using an international, multi-center, randomized, double-blind, placebo-controlled, multi-dose, parallel group to determine efficacy and safety of obeticholic acid (OCA) in combination with ursodeoxycholic acid (UDCA) in subjects with primary biliary cirrhosis.
Key Exclusion criteria • Use of colchicine, methotrexate, azathioprine, or systemic corticosteroids • Screening conjugated (direct) bilirubin>2×ULN; ALT or AST>5×ULN; serum creatinine>1.5 mg/dL (133 μmol/L) • History or presence of hepatic decompensation (e.g., variceal bleeds, encephalopathy, or poorly controlled ascites) • History or presence of other concomitant liver diseases or human immunodeficiency virus (HIV) or other viral hepatitis infection • Clinically significant medical condition, and gastrointestinal conditions affecting drug ADME
The percent change (%) in serum ALP from Baseline to End of Study (EOS) was tested where [EOS=Day 85 or last observed ALP value on treatment]
Also observed were the absolute and percent changes in serum ALP levels from Baseline to Day 15, Day 29, Day 57, Day 85/ET and Follow-Up (Day 99). Patients were examined for the absolute and percent change in serum gamma-glutamyl transferase (GGT), alanine aminotransferase (ALT), and aspartate aminotransferase (AST) values from Baseline to Day 15, Day 29, Day 57, Day 85/ET and Follow-Up (Day 99). Patients were examined for absolute and percent changes in serum albumin and conjugated (direct) bilirubin values from Baseline to Day 15, Day 29, Day 57, Day 85/ET and Follow-Up (Day 99). Patients' Enhanced liver fibrosis (ELF) score and change in levels of its components, hyaluronic acid, aminoterminal peptide of pro-collagen III, and tissue inhibitor of matrix metalloproteinase-1 from Baseline to Day 85/ET were performed. The absolute and percent changes in levels of C-reactive protein, non-esterified fatty acid, tumor necrosis factor alpha, tumor necrosis factor beta, tumor growth factor beta, bile acids, glutathione, immunoglobulin M, and osteopontin from Baseline to Day 85/ET were taken.
Overall, 165 subjects (100%) received at least 1 dose of investigational product (ITT and Safety Populations) and 136 subjects comprised the Completer Population. One hundred sixty-one subjects (98%) were included for the analysis of the mITT Population as measured by the percent change in ALP from Baseline to EOS; the mITT Population for sensitivity analysis of the primary endpoint included 163 subjects. It should be noted that the mITT population was defined for the primary analysis as all patients randomized who received at least one dose of study medication and had at least one post-baseline ALP evaluation which was taken at most seven days after their last dose of study medication. (See FIG. 10). The mITT Population for the sensitivity analysis included ALP assessments obtained up to 15 days after the last investigational product use (unlike 7 days for primary endpoint). The number of subjects was balanced across all groups in all analysis populations with the exception of the Completer Population due to the higher proportion of discontinuations with OCA 50 mg.

[4] = pKa; format: physicochemical
[5] = system: patients with NASH; experiment: Example 12: double-blind study of daily 25 mg OCA in NASH, high risk subgroup; format: in vivo, human; details: week 72, 25 mg OCA daily
Experimental: This example describes a clinical, double-blind study examining the effect of daily 25 mg OCA on nonalcoholic steatohepatitis (NASH). OCA lead to biopsy proven improvements in liver fibrosis. Patients with NASH who have elevated NAFLD activity scores (NAS) and fibrosis are at a higher risk of progression to cirrhosis and liver related mortality.
The high risk subgroup was defined as patients with a baseline NAS≥4, baseline fibrosis stage 2 or 3 or baseline fibrosis stage 1 with a comorbidity (type 2 diabetes, BMI≥30 kg/m^2 or ALT≥60 U/L) (OCA n=114; Placebo n=112). The Fibrosis-4 (FIB-4), the aspartate transaminase to platelet ratio (APRI), and the NAFLD fibrosis score (NFS) were all examined between baseline through 72 weeks of treatment and for an additional 24 weeks of follow up.

[6] = OCA 10 mg + UDCA, Completer (n = 32)
[7] = OCA 25 mg + UDCA, Completer (n = 42)
[8] = OCA 50 mg + UDCA, Completer (n = 25)

For CC[C@H]1[C@@H](O)[C@@H]2[C@H](CC[C@]3(C)[C@@H]([C@H](C)CCC(=O)O)CC[C@@H]23)[C@@]2(C)CC[C@@H](O)C[C@@H]12 [OCA, 3α,7α-dihydroxy-6α-ethyl-5β-cholan-24-oic acid], the “change in expression of CYP2B6, CYP2C8, CYP2D6, MRP2, MRP3, MRP4, MATE1, and OATP2B1” value [1] is given as “did not cause a significant change”, the “potency compared to CDCA” value [2] is given as “approximately 100 fold” and the “ALP Mean Change, Baseline to Day 85/ET” value [3, 6] is given as −86.3 U/L. The “ALP Mean Percent Change, Baseline to Day 85/ET” value (“ALP Mean Percent Change” below) [3, 6] was −26.7%, the “ALP Median Change, Baseline to Day 85/ET” value [3, 6] was −61.3 U/L and the “ALP Median Percent Change, Baseline to Day 85/ET” value (“ALP Median Percent Change” for short) [3, 6] was −23.5%. The “ALP at Day 85/ET, Mean” value [3, 6] was 212.3 U/L, the “ALP at Day 85/ET, Median” value [3, 6] was 175.0 U/L and the “ALP Mean Change, Baseline to Day 85/ET” value ([3]; OCA 10 mg + UDCA, ITT (n = 38)) was −75.4 U/L. For the same molecule, the “ALP Mean Percent Change” value ([3]; OCA 10 mg + UDCA, ITT (n = 38)) was −23.3%, the “ALP Median Change, Baseline to Day 85/ET” value ([3]; OCA 10 mg + UDCA, ITT (n = 38)) was −47.5 U/L and the “ALP Median Percent Change” value ([3]; OCA 10 mg + UDCA, ITT (n = 38)) was −21.0%. For the same molecule, the “ALP at Day 85/ET, Mean” value ([3]; OCA 10 mg + UDCA, ITT (n = 38)) was 219.0 U/L, the “ALP at Day 85/ET, Median” value ([3]; OCA 10 mg + UDCA, ITT (n = 38)) was 177.5 U/L and the “ALP Mean Change, Baseline to Day 85/ET” value [3, 7] was −76.0 U/L. For the same molecule, the “ALP Mean Percent Change” value [3, 7] was −26.6%, the “ALP Median Change, Baseline to Day 85/ET” value [3, 7] was −71.3 U/L and the “ALP Median Percent Change” value [3, 7] was −28.2%. For the same molecule, the “ALP at Day 85/ET, Mean” value [3, 7] was 199.0 U/L, the “ALP at Day 85/ET, Median” value [3, 7] was 187.5 U/L and the “ALP Mean Change, Baseline to Day 85/ET” value ([3]; OCA 25 mg + UDCA, ITT (n = 48)) was −65.0 U/L. For the same molecule, the “ALP Mean Percent Change” value ([3]; OCA 25 mg + UDCA, ITT (n = 48)) was −24.0%, the “ALP Median Change, Baseline to Day 85/ET” value ([3]; OCA 25 mg + UDCA, ITT (n = 48)) was −69.3 U/L and the “ALP Median Percent Change” value ([3]; OCA 25 mg + UDCA, ITT (n = 48)) was −27.8%. For the same molecule, the “ALP at Day 85/ET, Mean” value ([3]; OCA 25 mg + UDCA, ITT (n = 48)) was 225.0 U/L, the “ALP at Day 85/ET, Median” value ([3]; OCA 25 mg + UDCA, ITT (n = 48)) was 187.5 U/L and the “ALP Mean Change, Baseline to Day 85/ET” value [3, 8] was −101.8 U/L. The “ALP Mean Percent Change” value [3, 8] was −32.5%, the “ALP Median Change, Baseline to Day 85/ET” value [3, 8] was −76.0 U/L and the “ALP Median Percent Change” value [3, 8] was −33.9%. The “ALP at Day 85/ET, Mean” value [3, 8] was 179.1 U/L, the “ALP at Day 85/ET, Median” value [3, 8] was 158.5 U/L and the “ALP Mean Change, Baseline to Day 85/ET” value ([3]; OCA 50 mg + UDCA, ITT (n = 41)) was −62.9 U/L. For the same molecule, the “ALP Mean Percent Change” value ([3]; OCA 50 mg + UDCA, ITT (n = 41)) was −20.0%, the “ALP Median Change, Baseline to Day 85/ET” value ([3]; OCA 50 mg + UDCA, ITT (n = 41)) was −56.5 U/L and the “ALP Median Percent Change” value ([3]; OCA 50 mg + UDCA, ITT (n = 41)) was −22.7%. The “ALP at Day 85/ET, Mean” value ([3]; OCA 50 mg + UDCA, ITT (n = 41)) was 227.9 U/L, the “ALP at Day 85/ET, Median” value ([3]; OCA 50 mg + UDCA, ITT (n = 41)) was 197.0 U/L and the pKa [4] was 4.82. The “APRI OCA-Placebo LS Mean change” value ([5]; 95% CI=[−0.32, −0.15]) was −0.23, the “NFS OCA-Placebo LS Mean change” value ([5]; 95% CI=[−0.45, −0.10]) was −0.28 and the “FIB-4 OCA-Placebo LS Mean change” value ([5]; 95% CI=[−0.47, −0.19]) was −0.33.
